From US12071624B2, “Antisense oligonucleotide targeting ARL4C molecule, and nucleic acid drug using antisense oligonucleotide” (OSAKA UNIVERSITY, priority 2018, dated 2024)
[AmNA] = 2',4'-bridged nucleic acid with N-methyl amide bridge (AmNA); d = 2'-deoxy (DNA)

What was measured:
[1] = tested on: ARL4C mRNA; assay: ARL4C mRNA amount by real-time PCR in HCT116 cells; assay type: cell-based, human; details: HCT116 cells transfected at 25 nM
Method: (§1) HLE cells, HCT116 cells, and A549 cells were transfected with 25 to 50 nM ASO and 10 to 20 nM siRNA using Lipofectamine 3000 (Invitrogen, Carlsbad, CA, USA) or RNAiMAX (Invitrogen). Transfected cells were used in the experiments 36 to 48 hours after the end of the transfection.
(§2) Cell migration assays and quantitative real-time PCR analyses were performed according to the methods reported by Fujii S et al. (Oncogene 2015; 34: 4834-44).
HLE cells and HCT116 cells were transfected with the above-described seven types of ARL4C ASOs and the control ASO at 25 nM, and the ARL4C mRNA amounts were measured by real-time PCR; the results thereof are shown in (a) of FIG. 4. […] In order to optimize the effect of these three types of ARL4C ASOs, four bases were added to each of these three types of ARL4C ASOs, whereby ASO-1312, ASO-1450, and ASO-3223 each of which consisted of 19 bases were produced. With these six types of ARL4C ASOs (ASO-1316, ASO-1312, ASO-1454, ASO-1450, ASO-3225, and ASO-3223), the knockdown effect on ARL4C was further studied.

[2] = tested on: HLE cells; assay: Cell migration assay in HLE/GFP and HLE/ARL4C-GFP cells; assay type: cell-based; details: HLE/GFP or HLE/ARL4C-GFP cells transfected at 25 nM
From the text: HLE cells allowing for the stable expression of GFP (HLE/GFP cells), HLE cells allowing for the stable expression of ARL4c-GFP with GFP fused to the C-terminal side (HLE/ARL4C-GFP cells, i.e., cells in which ARL4C-GFP is transduced and stably expressed), HCT116 cells allowing for the stable expression of luciferase (HCT116/Luc cells), A549 cells allowing for the stable expression of luciferase (A549/Luc cells), and S2-CP8 cells allowing for the stable expression of luciferase (S2-CP8/Luc cells) were produced using lentivirus according to the method reported by Matsumoto S et al. (EMBO J 2014; 33: 702-18) and Fujii S et al. (Oncogene 2015; 34: 4834-44). In addition, ARL4C-GFP is ARL4C with GFP fused thereto.
as §1
Cell migration assays and quantitative real-time PCR analyses were performed according to the methods reported by Fujii S et al. (Oncogene 2015; 34: 4834-44). […]

[3] = tested on: HLE cells; assay: Cell proliferation assay (CyQUANT NF) in HLE cells; assay type: cell-based; details: HLE cells transfected with ASO at 25 nM
Method: as §1
The cell proliferation assays were performed using the CyQUANT NF Cell Proliferation Assay Kits (Thermo Fisher Scientific), in the way recommended by the manufacturer.
HLE cells were transfected with control ASO, ASO-1316 and ASO-3223 at 25 nM and a proliferation assay was performed; the results of the assay are shown in (e) of FIG. 4.
HLE cells were transfected with control siRNA and PIK3CD siRNA (siRNA against PIK3CD) at 20 nM, and a proliferation assay was performed; the results are shown in (e) of FIG. 5. In addition, an anti-phosphorylated AKT antibody and an anti-AKT antibody as probes were caused to act on cell lysates of HLE cells transfected with control siRNA and PIK3CD siRNA; the results are shown in FIG. 5 (f). HLE cells were transfected with control siRNA and PIK3CD siRNA (siRNA against PIK3CD) at 20 nM and the PIK3CD mRNA amount was measured by real-time PCR; the results are shown in (c) of FIG. 7.

[4] = tested on: HCT116 cells; assay: Cell migration assay in HCT116 cells; assay type: cell-based; details: HCT116 cells transfected at 25 nM
Method: as §1, §2
In addition, HCT116 cells were transfected with control ASO, ASO-1316 and ASO-3223 at 25 nM, and a cell migration assay was carried out; the results are shown in (e) of FIG. 3.

[5] = tested on: nuclear localization of YAP in A549 cells; assay: Anti-YAP/TAZ antibody staining in A549 cells; assay type: cell-based, human; details: A549 cells transfected at 25 nM
Method: as §1
(§3) HLE cells or A549 cells were transfected with control ASO, ASO-1316, and ASO-3223 at 25 nM, and were stained with an anti-YAP/TAZ antibody; the results are shown in (c) of FIG. 6.

[6] = tested on: nuclear localization of YAP in HLE cells; assay: Anti-YAP/TAZ antibody staining in HLE cells; assay type: cell-based; details: HLE cells transfected at 25 nM
Method: as §1, §3

[7] = tested on: HLE cells; assay: Primary liver tumor model, HLE cells transplanted into mouse liver; assay type: in vivo; details: for HLE tumorigenesis in the liver: 50 μg/body subcutaneously twice a week from day 0, 29 days after transplantation
Method: Pellets of HLE cells (1×10^7 cells) were suspended in 100 μl of Matrigel matrix high concentration (BD Biosciences, San Jose, CA, USA) and were injected into the livers of 8-week-old male nude mice (BALB/cAJcl-nu/nu, CLEA Japan, Inc.) under anesthesia (day 0). From day 0, ASO (50 μg/body; about 2.5 mg/kg) was subcutaneously administered twice a week. Mice were euthanized 29 days after the HLE cell transplantation, and tumors were recovered and subjected to histological analysis.
In a primary liver tumor model in which HLE cells were directly transplanted into the liver, influences of the subcutaneous administration of ARL4C ASO (ASO-1316 and ASO-3223) on liver tumors was examined.
In experiments in the primary liver tumor model, Matrigel containing HEL cells at a high concentration was injected into the liver of a mouse (day 0), and control ASO, ASO-1316, and ASO-3223 were subcutaneously administered on and after day 0, at a frequency of twice a week. The tumor formed in the liver was observed when 29 days had elapsed since the transplantation; the result is shown in (a) of FIG. 8. In addition, when 29 days had elapsed since the transplantation, the tumor formed in the liver was immunostained with an anti-ARL4C antibody and an anti-PIK3CD antibody, the result of which is shown in (b) of FIG. 8, and the tumor was immunostained with an anti-Ki-67 antibody, the result of which is shown in (c) of FIG. 8.

[8] = subcutaneous twice a week, day 29

Substance | ARL4C mRNA amount [1] | cell migration [2] | cell proliferation [3] | cell migration [4] | nuclear localization of YAP [5] | nuclear localization of YAP [6] | HLE tumorigenesis in the liver [7] | tumor size as compared with the control ASO ([7]; 50 μg/body subcutaneously twice a week, day 29) | expression of ARL4C in tumors formed in the liver (immunostaining) [7, 8] | expression of PIK3CD in tumors formed in the liver (immunostaining) [7, 8] | histological damage or cell death in the non-tumor area of the liver [7, 8] | number of Ki-67-positive cells in liver tumors [7, 8] | antitumor effect in vivo ([7]; primary liver tumor model)
ASO-1316: 15-mer AmNA/phosphorothioate ASO targeting ARL4C, base sequence SEQ ID NO: 1 gcatacctcaggtaa; Table 1 SEQ ID NO 13 (antisense GCATACCTCAGGTAA; AmNA and phosphorothioate modified, pattern not given here) | reduced the ARL4C mRNA amount | suppress the migration of HLE cells | inhibit HLE cells from proliferating | suppress the migration of HCT116 cells | inhibited the nuclear localization of YAP | did not affect the nuclear localization of YAP | able to suppress the HLE tumorigenesis | reduce the tumor size by half | suppress the expression of ARL4C and PIK3CD | suppress the expression of ARL4C and PIK3CD | did not induce histological damage or cell death | reduce the number of Ki-67-positive cells | 
ASO-3223: 19-mer ARL4C ASO of Table 1, SEQ ID NO 55 (antisense NNNGGTTACAGTATTTNNC; sugars from the 5' end [AmNA]3 d13 [AmNA]2 d1, backbone, methylation of C and the base at N not given here; further chemistry not fully specified) |  | suppress the migration of HLE cells | inhibit HLE cells from proliferating | suppress the migration of HCT116 cells | inhibited the nuclear localization of YAP | did not affect the nuclear localization of YAP | almost no influence |  | almost no influence | almost no influence |  | almost no influence | no antitumor effect was observed
